Assay results: article PMC10333285, “Structural basis of ligand activation and inhibition in a mammalian TRPV4 ion channel” (Cell Discovery, 2023)

Key:
TRPV4 (mTRPV4) [1] = target: TRPV4 (mTRPV4) (Mus musculus, UniProt Q9EPK8); assay: cryo-EM structure with GSK101 also bound ([…] Å); patch-clamp inhibition IC50; format: cell-based
TRPV4 (mTRPV4) [2] = target: TRPV4 (mTRPV4) (Mus musculus, UniProt Q9EPK8, D682A); assay: patch-clamp inhibition of GSK101-activated mutant channel; format: cell-based
Sequence of TRPV4 (mTRPV4) (Mus musculus, UniProt Q9EPK8, D682A) (Q9EPK8 whole entry D682A): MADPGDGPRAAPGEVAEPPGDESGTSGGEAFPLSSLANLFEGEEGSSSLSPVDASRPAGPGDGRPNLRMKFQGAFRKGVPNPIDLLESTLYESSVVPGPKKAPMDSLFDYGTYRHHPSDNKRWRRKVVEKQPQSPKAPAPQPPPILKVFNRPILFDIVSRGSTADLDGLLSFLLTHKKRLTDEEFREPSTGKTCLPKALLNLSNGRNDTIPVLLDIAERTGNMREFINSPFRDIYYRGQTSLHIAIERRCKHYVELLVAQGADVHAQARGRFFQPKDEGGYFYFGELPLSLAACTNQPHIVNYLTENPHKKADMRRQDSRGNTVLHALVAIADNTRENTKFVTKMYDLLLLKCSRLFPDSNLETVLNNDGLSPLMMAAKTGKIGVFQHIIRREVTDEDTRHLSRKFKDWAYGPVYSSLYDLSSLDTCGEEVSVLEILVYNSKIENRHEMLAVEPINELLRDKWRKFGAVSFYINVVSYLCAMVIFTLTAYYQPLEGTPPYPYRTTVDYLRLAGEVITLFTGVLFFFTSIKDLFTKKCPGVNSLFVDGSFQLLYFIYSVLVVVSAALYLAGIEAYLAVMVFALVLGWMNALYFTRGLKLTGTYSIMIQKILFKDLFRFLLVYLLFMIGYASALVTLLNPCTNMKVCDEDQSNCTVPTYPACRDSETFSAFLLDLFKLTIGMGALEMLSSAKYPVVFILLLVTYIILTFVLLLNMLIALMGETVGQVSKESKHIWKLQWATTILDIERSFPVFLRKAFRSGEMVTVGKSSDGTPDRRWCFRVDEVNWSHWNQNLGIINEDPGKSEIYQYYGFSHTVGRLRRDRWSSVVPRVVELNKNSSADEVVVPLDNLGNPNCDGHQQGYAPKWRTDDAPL

Sequence of TRPV4 (mTRPV4) (Mus musculus, UniProt Q9EPK8) (Q9EPK8 whole entry): as the sequence (Q9EPK8 whole entry D682A) above, with A682D counted along it

## Cl.Cl.Cl.Cl.Cl.Cl.N.N.N.N.N.N.N.N.N.N.N.N.N.N.[O-2].[O-2].[Ru+3].[Ru+3].[Ru+4] [ruthenium red]
TRPV4 (mTRPV4) [1]
  IC50: 0.3 ± 0.1 µM
TRPV4 (mTRPV4) [2]
  IC50: 15.6 ± 3.2 µM
